# In US5439927A, “Imidazoyl-β-oxo-β-benzenepropanethiomide derivative, compositions and method of use thereof” (Mitsubishi Kasei Corporation, priority 1991, dated 1995):
# Columns and labels:
# [1] = system: aorta thoracica of a Wistar rat; experiment: Suppression of 20 mM K shrinkage (contraction) of rat aorta thoracica (Test Example 1); settings: Klebs-Heneleit solution, 37° C., 20 mMK, read-out: Rat aorta IC30 20 mMK (dose of a drug suppressing 30% of 20 mMK shrinkage)
# Experimental: The aorta thoracica of a Wistar rat was resected and then suspended in a Klebs-Heneleit solution kept at 37° C., according to the Weir and Weston's method (Br. J. Pharmac., 88, 121, (1986)), to determine the dose (IC30 20 mMK) of a drug suppressing 30% of 20 mMK shrinkage. As control, the same test done about the known compound A described in Bull. Soc. Chem. Fr., 1975, 829.
# [2] = system: spontaneous hypertensive rats (OKAMOTO-AOKI strain); experiment: Blood pressure lowering in spontaneous hypertensive rats after oral administration (Test Example 2); assay type: in vivo; settings: 2 hours after the dosing, direct method
# Experimental: At a dose of 3 mg/kg or 10 mg/kg, the compound of the present invention was orally administered to spontaneous hypertensive rats (OKAMOTO-AOKI strain) with an average blood pressure of 150 mmHg or more. According to the direct method described by Nakano H. and Takayanagi K., Japanese Journal of Pharmacology, Vol. 25, 25 (1975), blood pressure and cardiac output were measured. Using the compound A used in the Test Example 1 as control, the same test was done.
smiles,measurement,setting,value
CNC(=S)C(C)(C)C(=O)c1cccc(-n2ccnc2)c1 [Compound 265],IC30,[1],0.62 µM
same,Mean blood pressure: Blood pressure decrease,[2]; 3 mg/kg,76.5 mmHg
CNC(=S)C1(C(=O)c2ccc(-n3ccnc3C)cc2)CCC1 [Compound 357],IC30,[1],0.18 µM
same,Mean blood pressure: Blood pressure decrease,[2]; 10 mg/kg,78.4 mmHg
CNC(=S)C1(C(=O)c2ccc(-n3ccnc3)cc2)CC1 [Compound 342],Mean blood pressure: Blood pressure decrease,[2]; 10 mg/kg,31.2 mmHg
"CNC(=S)C1(C(=O)c2ccc(-n3ccnc3)cc2)CCC1 [Compound 356, 4-(1-imidazolyl)-N-methyl-β-oxo-α,α-trimethylenebenzenepropanethioamide]",IC30,[1],2.1 µM
same,Mean blood pressure: Blood pressure decrease,[2]; 10 mg/kg,58.9 mmHg
CNC(=S)C(C)(C)C(=O)c1ccc(-n2ccnc2)cc1 [Compound 226],IC30,[1],13 µM
same,Mean blood pressure: Blood pressure decrease,[2]; 10 mg/kg,35.9 mmHg
CNC(=S)C(C)(C)C(=O)c1ccccc1-n1ccnc1 [Compound 302],Mean blood pressure: Blood pressure decrease,[2]; 10 mg/kg,51.9 mmHg
CNC(=S)C(C)(C)C(=O)c1ccc(C#N)cc1 [Compound 224],IC30,[1],5 µM
same,Mean blood pressure: Blood pressure decrease,[2]; 10 mg/kg,38.8 mmHg
"CNC(=S)C(C)(C)C(=O)c1ccccc1 [Compound A, N, α, α-trimethyl-β-oxobenzenepropanethioamide, reference compound]",IC30,[1],13.6 µM
same,Mean blood pressure: Blood pressure decrease,[2]; 10 mg/kg,14.1 mmHg
